In PMC12645083, “Microwave‐Enhanced Synthesis of 2‐Styrylquinoline‐4‐Carboxamides With Promising Anti‐Lymphoma Activity” (Archiv Der Pharmazie, 2025):

Assays:
Experiment in all cases: In vitro antiproliferative activity, resazurin cell viability
Type in all cases: cell-based
HD-MB03 = conditions: Homo sapiens, medulloblastoma cells, 72 h of treatment, mean ± SEM, at least three experiments
Experimental: (§1) To test the newly synthesized compounds, various human cell lines were employed. HD‐MB03 cells were purchased from DSMZ (Braunschweig, Germany), while A549, MDA‐MB‐231, RPMI‐8420, SU‐DHL‐8, TOLEDO, VL51, SU‐DHL‐1, SU‐DHL‐18, and KM‐H2 were obtained from ATCC (Manassas, VA, USA). Cells were cultured in DMEM (for MDA‐MB‐231 and A549) or RPMI‐1640 (for RPMI‐8420, SU‐DHL‐8, TOLEDO, VL51, SU‐DHL‐1, SU‐DHL‐18, KM‐H2, and HD‐MB03) media (Gibco, Milan, Italy). Both media were supplemented with 115 units/mL penicillin G (Gibco, Milan, Italy), 115 µg/mL streptomycin (Invitrogen, Milan, Italy), and 10% fetal bovine serum (Invitrogen, Milan, Italy). Peripheral blood mononuclear cells (PBMCs) were isolated from healthy donors as previously described. For cytotoxicity assays, PBMCs were resuspended at 5 × 10⁵ cells/mL in complete RPMI medium with or without 2.5 µg/mL phytohemagglutinin (PHA) (Irvine Scientific) to stimulate T‐cell activation and proliferation. All cell lines were maintained at 37°C in a humidified atmosphere containing 5% CO₂. All compounds were dissolved in DMSO at a 10 mM stock concentration. For dose–response assays, cells were seeded in 96‐well plates at densities optimized for each cell line: HD‐MB03 at 10,000 cells/well, A549 at 4000 cells/well, and MDA‐MB‐231 at 7000 cells/well. All other cell lines were seeded at 20,000 cells/well in a final volume of 100 µL per well. After 24 h, cells were treated with a 6‐point serial dilution of compounds starting from 10 µM, in triplicate for statistical analysis. Seventy‐2 h posttreatment, 10 µL of resazurin solution (100 µg/mL) was added to each well, and cells were incubated for an additional 3–6 h. Fluorescence was measured using a Spark 10 M microplate reader (Tecan Group Ltd., Männedorf, Switzerland) with excitation at 535 nm and emission at 600 nm. The IC₅₀ was defined as the concentration of compound required to inhibit cell proliferation by 50% compared to cells treated with the highest DMSO concentration.
(§2) To test the newly synthesized compounds, various human cell lines were employed. HD-MB03 cells were purchased from DSMZ (Braunschweig, Germany), while A549, MDA-MB-231, RPMI-8420, SU-DHL-8, TOLEDO, VL51, SU-DHL-1, SU-DHL-18, and KM-H2 were obtained from ATCC (Manassas, VA, USA). Cells were cultured in DMEM (for MDA-MB-231 and A549) or RPMI-1640 (for RPMI-8420, SU-DHL-8, TOLEDO, VL51, SU-DHL-1, SU-DHL-18, KM-H2, and HD-MB03) media (Gibco, Milan, Italy). Both media were supplemented with 115 units/mL penicillin G (Gibco, Milan, Italy), 115 µg/mL streptomycin (Invitrogen, Milan, Italy), and 10% fetal bovine serum (Invitrogen, Milan, Italy). Peripheral blood mononuclear cells (PBMCs) were isolated from healthy donors as previously described. ^[1] For cytotoxicity assays, PBMCs were resuspended at 5 × 10⁵ cells/mL in complete RPMI medium with or without 2.5 µg/mL phytohemagglutinin (PHA) (Irvine Scientific) to stimulate T cell activation and proliferation. All cell lines were maintained at 37 °C in a humidified atmosphere containing 5% CO₂. All compounds were dissolved in DMSO at a 10 mM stock concentration. For dose–response assays, cells were seeded in 96-well plates at densities optimized for each cell line: HD-MB03 at 10,000 cells/well, A549 at 4,000 cells/well, and MDA-MB-231 at 7,000 cells/well. All other cell lines were seeded at 20,000 cells/well in a final volume of 100 µL per well. After 24 hours, cells were treated with a 6-point serial dilution of compounds starting from 10 µM, in triplicate for statistical analysis. Seventy-two hours post-treatment, 10 µL of resazurin solution (100 µg/mL) was added to each well, and cells were incubated for an additional 3–6 hours. Fluorescence was measured using a Spark 10M microplate reader (Tecan Group Ltd., Männedorf, Switzerland) with excitation at 535 nm and emission at 600 nm. […]

MDA-MB-231 = conditions: Homo sapiens, triple-negative breast cancer, 72 h of treatment, mean ± SEM
Experimental: as §1, §2

SU-DHL-8 = conditions: Homo sapiens, B lymphocyte, large cell lymphoma, 72 h of treatment, mean ± SEM
Experimental: as §1, §2

RPMI-8402 = conditions: Homo sapiens, T-lymphoblastic leukemia cells, 72 h of treatment, mean ± SEM
Experimental: as §1, §2

A549 = conditions: Homo sapiens, non-small cell lung cancer, 72 h of treatment, mean ± SEM
Experimental: as §1, §2

SMILES | IC50 (HD-MB03) [µM] | IC50 (MDA-MB-231) [µM] | IC50 (SU-DHL-8) [µM] | IC50 (RPMI-8402) [µM] | IC50 (A549) [µM]
O=C(Nc1ccc(Cl)cc1)c1cc(/C=C/c2ccccc2)nc2ccccc12 [4g, (E)-N-(4-chlorophenyl)-2-styrylquinoline-4-carboxamide] | > 10 | > 10 | 7.8 ± 1.3 | 6.31 ± 0.36 | > 10
COc1cc(/C=C/c2cc(C(=O)Nc3ccc(C(F)(F)F)cc3)c3ccccc3n2)cc(OC)c1OC [4r, (E)-N-(4-(trifluoromethyl)phenyl)-2-(3,4,5-trimethoxystyryl)quinoline-4-carboxamide] | > 10 | > 10 | 2.13 ± 0.08 | > 10 | > 10
O=C(Nc1ccccc1)c1cc(/C=C/c2ccccc2)nc2ccccc12 [4a, (E)-N-phenyl-2-styrylquinoline-4-carboxamide] | > 10 | > 10 | > 10 | > 10 | > 10
COc1cc(/C=C/c2cc(C(=O)Nc3cccc(C)c3)c3ccccc3n2)cc(OC)c1OC [4l, (E)-N-(m-tolyl)-2-(3,4,5-trimethoxystyryl)quinoline-4-carboxamide] | > 10 | 5.95 ± 0.66 | 2.94 ± 0.08 | 3.75 ± 0.18 | 9.34 ± 0.18
Cc1cccc(C)c1NC(=O)c1cc(/C=C/c2ccccc2)nc2ccccc12 [4d, (E)-N-(2,6-dimethylphenyl)-2-styrylquinoline-4-carboxamide] | > 10 | 5.6 ± 0.79 | 6.53 ± 1.49 | > 10 | > 10
COc1ccc(/C=C/c2cc(C(=O)Nc3ccc(Cl)cc3)c3ccccc3n2)cc1 [4ae, (E)-N-(4-chlorophenyl)-2-(4-methoxystyryl)quinoline-4-carboxamide] | > 10 | > 10 | 4.67 ± 0.14 | 6.41 ± 1.16 | > 10
COc1ccc(/C=C/c2cc(C(=O)Nc3ccc([N+](=O)[O-])c(C(F)(F)F)c3)c3ccccc3n2)cc1 [4v, (E)-2-(4-methoxystyryl)-N-(4-nitro-3-(trifluoromethyl)phenyl)quinoline-4-carboxamide] | > 10 | > 10 | > 10 | > 10 | > 10
Cc1cccc(NC(=O)c2cc(/C=C/c3ccccc3)nc3ccccc23)c1 [4b, (E)-2-styryl-N-(m-tolyl)quinoline-4-carboxamide] | > 10 | > 10 | 5.05 ± 0.58 | > 10 | > 10
O=C(Nc1ccc(C(F)(F)F)cc1)c1cc(/C=C/c2ccccc2[N+](=O)[O-])nc2ccccc12 [4ac, (E)-2-(2-nitrostyryl)-N-(4-(trifluoromethyl)phenyl)quinoline-4-carboxamide] | > 10 | > 10 | > 10 | > 10 | > 10
COc1cc(/C=C/c2cc(C(=O)Nc3ccc(Cl)cc3)c3ccccc3n2)cc(OC)c1OC [4q, (E)-N-(4-chlorophenyl)-2-(3,4,5-trimethoxystyryl)quinoline-4-carboxamide] | > 10 | > 10 | 4.61 ± 0.84 | > 10 | > 10
O=C(Nc1ccc(C(F)(F)F)cc1)c1cc(/C=C/c2cccc([N+](=O)[O-])c2)nc2ccccc12 [4ad, (E)-2-(3-nitrostyryl)-N-(4-(trifluoromethyl)phenyl)quinoline-4-carboxamide] | > 10 | > 10 | > 10 | > 10 | > 10
COc1cc(/C=C/c2cc(C(=O)Nc3ccc(C)cc3)c3ccccc3n2)cc(OC)c1OC [4m, (E)-N-(p-tolyl)-2-(3,4,5-trimethoxystyryl)quinoline-4-carboxamide] | > 10 | > 10 | > 10 | > 10 | > 10
O=C(Nc1ccc(C(F)(F)F)cc1)c1cc(/C=C/c2ccc(Br)cc2)nc2ccccc12 [4aa, (E)-2-(4-bromostyryl)-N-(4-(trifluoromethyl)phenyl)quinoline-4-carboxamide] | > 10 | > 10 | > 10 | > 10 | > 10
COc1cc(/C=C/c2cc(C(=O)Nc3cc(OC)c(OC)c(OC)c3)c3ccccc3n2)cc(OC)c1OC [4o, (E)-N-(3,4,5-trimethoxyphenyl)-2-(3,4,5-trimethoxystyryl)quinoline-4-carboxamide] | > 10 | 5.95 ± 0.89 | 2.09 ± 0.14 | 4.55 ± 0.42 | > 10
O=C(Nc1cccc(Cl)c1)c1cc(/C=C/c2ccccc2)nc2ccccc12 [4f, (E)-N-(3-chlorophenyl)-2-styrylquinoline-4-carboxamide] | > 10 | > 10 | 8.27 ± 0.72 | > 10 | > 10
COc1cc(/C=C/c2cc(C(=O)Nc3cccc(Cl)c3)c3ccccc3n2)cc(OC)c1OC [4p, (E)-N-(3-chlorophenyl)-2-(3,4,5-trimethoxystyryl)quinoline-4-carboxamide] | 8.31 ± 0.64 | 5.7 ± 0.1 | 4.46 ± 0.37 | 9.06 ± 0.59 | > 10
COc1cc(NC(=O)c2cc(/C=C/c3ccccc3)nc3ccccc23)cc(OC)c1OC [4e, (E)-2-styryl-N-(3,4,5-trimethoxyphenyl)quinoline-4-carboxamide] | 7.1 ± 1.15 | > 10 | 6.61 ± 0.76 | > 10 | > 10
O=C(Nc1ccc(Cl)cc1)c1cc(/C=C/c2ccc(Cl)c(Cl)c2)nc2ccccc12 [4ag, (E)-N-(4-chlorophenyl)-2-(3,4-dichlorostyryl)quinoline-4-carboxamide] | 6.93 ± 0.06 | 5.52 ± 0.22 | 3.49 ± 0.11 | 6.42 ± 0.43 | 7.71 ± 0.56
O=C(Nc1ccc(Cl)cc1)c1cc(/C=C/c2ccc(Cl)cc2)nc2ccccc12 [4af, (E)-N-(4-chlorophenyl)-2-(4-chlorostyryl)quinoline-4-carboxamide] | > 10 | > 10 | 4.45 ± 0.53 | 4.61 ± 0.24 | > 10
O=C(Nc1ccc([N+](=O)[O-])c(C(F)(F)F)c1)c1cc(/C=C/c2ccc(Cl)c(Cl)c2)nc2ccccc12 [4x, (E)-2-(3,4-dichlorostyryl)-N-(4-nitro-3-(trifluoromethyl)phenyl)quinoline-4-carboxamide] | > 10 | > 10 | > 10 | > 10 | > 10
Cc1ccc(NC(=O)c2cc(/C=C/c3ccccc3)nc3ccccc23)cc1 [4c, (E)-2-styryl-N-(p-tolyl)quinoline-4-carboxamide] | > 10 | > 10 | > 10 | > 10 | > 10
